# Results published in ChEMBL document CHEMBL6182851, “Discovery of dual CDK4/6 and BRD4 inhibitor as apoptosis and autophagy inducers against NSCLC in vitro and in vivo” (Eur J Med Chem, 2025).
# Activity calls are given as the source filed them. No cut-off for these calls is given here.
# Tests used:
# [1] = system: NCI-H460; test: Induction of autophagy in human NCI-H460 cells assessed as reduction in intracellular mTOR protein expression; format: functional, cell-based
# [2] = system: L02; test: Cytotoxicity against human LO2 cells assessed as inhibition of cell viability at 5 to 10 uM incubated for 48 hrs by MTT assay; format: toxicity, cell-based; details: l02, 48 h, dose 5-10 µM
# [3] = system: NCI-H460; test: Antiproliferative activity against human NCI-H460 cells assessed as reduction in EdU positive cells incubated for 24 hrs by EdU incorporation assay; format: functional, cell-based; details: dose 2-8 µM
# [4] = system: NCI-H460; test: Antiproliferative activity against human NCI-H460 cells assessed as decrease in p-Rb expression at 2 to 8 uM treated for 24 hrs by immunofluorescence analysis; format: functional, cell-based; details: dose 2-8 µM
# [5] = system: NCI-H460; test: Induction of apoptosis in human NCI-H460 cells assessed as early apoptotic cells at 8 uM incubated for 48 hrs by Annexin V-PE/7-AAD staining based flow cytometric analysis (reference value: 3.58 %); format: functional
# [6] = system: NCI-H460; test: Induction of apoptosis in human NCI-H460 cells assessed as necrotic cells at 2 uM incubated for 48 hrs by Annexin V-PE/7-AAD staining based flow cytometric analysis (reference value: 0.79 %); format: functional
# [7] = system: NCI-H460; test: Induction of apoptosis in human NCI-H460 cells assessed as early apoptotic cells at 4 uM incubated for 48 hrs by Annexin V-PE/7-AAD staining based flow cytometric analysis (reference value: 3.58 %); format: functional
# [8] = system: NCI-H460; test: Induction of apoptosis in human NCI-H460 cells assessed as late apoptotic cells at 4 uM incubated for 48 hrs by Annexin V-PE/7-AAD staining based flow cytometric analysis (reference value: 3.76 %); format: functional
# [9] = system: NCI-H460; test: Induction of apoptosis in human NCI-H460 cells assessed as necrotic cells at 4 uM incubated for 48 hrs by Annexin V-PE/7-AAD staining based flow cytometric analysis (reference value: 0.79 %); format: functional
# [10] = system: NCI-H460; test: Induction of apoptosis in human NCI-H460 cells assessed as late apoptotic cells at 8 uM incubated for 48 hrs by Annexin V-PE/7-AAD staining based flow cytometric analysis (reference value: 3.76 %); format: functional
# [11] = system: NCI-H460; test: Induction of apoptosis in human NCI-H460 cells assessed as necrotic cells at 8 uM incubated for 48 hrs by Annexin V-PE/7-AAD staining based flow cytometric analysis (reference value: 0.79 %); format: functional
# [12] = system: NCI-H460; test: Induction of cell cycle arrest in human NCI-H460 cells assessed as accumulation of cells at G1 phase at 2 uM incubated for 48 hrs by PI staining based flow cytometric analysis (reference value: 56.7 %); format: functional
# [13] = system: NCI-H460; test: Induction of cell cycle arrest in human NCI-H460 cells assessed as accumulation of cells at S phase at 2 uM incubated for 48 hrs by PI staining based flow cytometric analysis (reference value: 33.3 %); format: functional
# [14] = system: NCI-H460; test: Induction of cell cycle arrest in human NCI-H460 cells assessed as accumulation of cells at G2 phase at 2 uM incubated for 48 hrs by PI staining based flow cytometric analysis (reference value: 11.0 %); format: functional
# [15] = system: NCI-H460; test: Induction of cell cycle arrest in human NCI-H460 cells assessed as accumulation of cells at G1 phase at 4 uM incubated for 48 hrs by PI staining based flow cytometric analysis (reference value: 56.7 %); format: functional
# [16] = system: NCI-H460; test: Induction of cell cycle arrest in human NCI-H460 cells assessed as accumulation of cells at G2 phase at 8 uM incubated for 48 hrs by PI staining based flow cytometric analysis (reference value: 11.0 %); format: functional
# [17] = system: NCI-H460; test: Induction of autophagy in human NCI-H460 cells assessed as suspension of dead cells incubated for 12 hrs by microscopic analysis; format: functional, cell-based
# [18] = system: NCI-H460; test: Induction of autophagy in human NCI-H460 cells assessed as increase in acidic vesicles incubated for 48 hrs by MDC staining and LC3B immunofluorescence analysis; format: functional, cell-based; details: dose 2-8 µM
# [19] = system: MCF-10A; test: Cytotoxicity against human MCF-10A cells assessed as cell viability at 5 to 10 uM incubated for 48 hrs by MTT assay; format: toxicity, cell-based; details: dose 5-10 µM
# [20] = system: NCI-H460; test: Induction of autophagy in human NCI-H460 cells assessed as colocalization of LC3B site with LAMP1 protein incubated for 24 hrs by immunofluorescence analysis; format: functional, cell-based; details: dose 2-8 µM
# [21] = system: NCI-H460; test: Induction of autophagy in human NCI-H460 cells assessed as production of autophagic vesicles at 4 uM incubated for 24 hrs by transmission electron microscopic analysis; format: functional, cell-based
# [22] = system: NCI-H460; test: Induction of autophagy in human NCI-H460 cells assessed as upregulation of beclin 1 level; format: functional, cell-based
# [23] = C0 in male Sprague-Dawley rat at 5 mg/kg, iv measured up to 24 hrs by LC-MS/MS analysis; format: ADME, organism-based; details: in vivo
# [24] = AUC (0 to t) in male Sprague-Dawley rat at 5 mg/kg, iv measured up to 24 hrs by LC-MS/MS analysis; format: ADME, organism-based; details: in vivo
# [25] = Apparent volume of distribution in male Sprague-Dawley rat at 5 mg/kg, iv measured up to 24 hrs by LC-MS/MS analysis; format: ADME, organism-based; details: in vivo, read-out: Vz
# [26] = Clearance in male Sprague-Dawley rat at 5 mg/kg, iv measured up to 24 hrs by LC-MS/MS analysis; format: ADME, organism-based; details: in vivo
# [27] = system: NCI-H460; test: Antitumor activity against human NCI-H460 cells xenografted in female BALB/c nude mouse assessed as reduction in P-RB expression at 50 mg/kg, ip administered for 21 consecutive days by immunohistochemical analysis; format: functional, organism-based; details: time 21.0 day
# [28] = system: NCI-H460; test: Cytotoxicity against human NCI-H460 cells measured up to 8 days; format: functional, cell-based; details: dose 2-8 µM, time <= 8.0 day
# [29] = system: NCI-H460; test: Antitumor activity against human NCI-H460 cells xenografted in female BALB/c nude mouse assessed as suppression of tumor volume at 50 mg/kg, ip administered for 21 consecutive days; format: functional, organism-based; details: time 21.0 day
# [30] = Toxicity in mouse assessed as body weight change at 100 to 400 mg/kg, ip measured for 21 days; format: organism-based; details: in vivo, 504 h, dose 100-400 mg/kg, time 21 day
# [31] = Toxicity in mouse assessed as histological change in heart at 400 mg/kg, ip measured for 21 days by H and E staining based analysis; format: organism-based; details: in vivo, 504 h, time 21 day
# [32] = Toxicity in mouse assessed as histological change in liver at 400 mg/kg, ip measured for 21 days by H and E staining based analysis; format: organism-based; details: in vivo, 504 h, time 21 day
# [33] = Toxicity in mouse assessed as histological change in spleen at 400 mg/kg, ip measured for 21 days by H and E staining based analysis; format: organism-based; details: in vivo, 504 h, time 21 day
# [34] = Toxicity in mouse assessed as histological change in lung at 400 mg/kg, ip measured for 21 days by H and E staining based analysis; format: organism-based; details: in vivo, 504 h, time 21 day
# [35] = Toxicity in mouse assessed as histological change in kidney at 400 mg/kg, ip measured for 21 days by H and E staining based analysis; format: organism-based; details: in vivo, 504 h, time 21 day
# [36] = system: A549; test: cells; details: Homo sapiens, A549, 48 h
# Description: Antitumor activity against human A549 cells assessed as inhibition of cell viability incubated for 48 hrs by MTT assay
# [37] = system: NCI-H1299; test: cells; details: Homo sapiens, NCI-H1299, 48 h
# Description: Antitumor activity against human NCI-H1299 cells assessed as inhibition of cell viability incubated for 48 hrs by MTT assay
# [38] = system: NCI-H460; test: cells; details: Homo sapiens, NCI-H460, 48 h
# Description: Antitumor activity against human NCI-H460 cells assessed as inhibition of cell viability incubated for 48 hrs by MTT assay
smiles,measurement,setting,value
COc1cc(-c2nc3ccc(F)cc3c(=O)[nH]2)cc(OC)c1OCC(=O)N1CCN(c2ccc(Nc3ncc4cc(C(=O)N(C)C)n(C5CCCC5)c4n3)nc2)CC1,Activity,[1],Dose-dependent-effect
same,Activity,[2],Non-toxic
same,Activity,[3],Dose-dependent-effect
same,Activity,[4],Active
same,Activity,[5],16.9%
same,Activity,[6],1.6%
same,Activity,[7],8.81%
same,Activity,[8],6.56%
same,Activity,[9],1.06%
same,Activity,[10],3.07%
same,Activity,[11],1.17%
same,Activity,[12],60.6%
same,Activity,[13],27%
same,Activity,[14],11.4%
same,Activity,[15],71.1%
same,Activity,[16],3.41%
same,Activity,[17],Active; Minor Suspension Was Observed
same,Activity,[18],Dose-dependent-effect
same,Activity,[19],Non-toxic
same,Activity,[20],Dose-dependent-effect
same,Activity,[21],Active
same,Activity,[22],Active
same,C0 at 24 h,[23],6000 ng/mL
same,AUC(0-t) at 24 h,[24],3780 ng·h/mL
same,Vd,[25],14.1 L/kg
same,clearance,[26],22.3 mL/min/kg
same,Activity,[27],Active
same,Activity,[28],Time-dependent-effect
same,Activity,[29],Active
same,Activity,[30],Non-toxic
same,Activity,[31],Non-toxic
same,Activity,[32],Non-toxic
same,Activity,[33],Non-toxic
same,Activity,[34],Non-toxic
same,Activity,[35],Non-toxic
same,IC50,[36],4.59 µM
same,IC50,[37],4.01 µM
same,IC50,[38],2.21 µM
